Laboratory results taken from patent publication US12655169B2, “Arabinose and preparation and use thereof” (THOMSON BIOTECH (XIAMEN) PTE. LTD., priority 2022, dated 2026).

How the values were obtained:
[1] = Saturation curve and crystallization curve of L-arabinose; format: physicochemical; details: for Crystallization mass concentration: cooling 1 °C/h, stirring 100 rpm; for Saturation mass concentration: water
Method: A round-bottom flask was plated in a constant-temperature box with temperature control. To a three-necked round-bottom flask (one flask mouth was plugged with a plastic stopper as a sampling mouth, one flask mouth was used for placing a stirrer, and one flask mouth was used for temperature sensing) were added a certain amount of ionized water and excessive L-arabinose crystal (prepared according to the method of Example 10). The mixture was stirred at 40° C., 49° C., 53° C., 58° C. and 65° C. for 3 h per temperature point, and then let stand for 4 h to allow the undissolved L-arabinose crystal to completely settle. Then the supernatant was collected and filtered through a microporous filter membrane (for filtration using a small injection needle in the constant-temperature box to eliminate the effect of temperature change). The resulting clear liquid was used for concentration determination. A saturation curve was plotted for arabinose: y=0.5927x+23.089 (correlation coefficient R 2=0.99) (see FIG. 4). Clear sugar liquids in which corresponding mass concentrations of L-arabinose were dissolved was prepared, then slowly cooled (1° C./h), and cooled at a constant rate (with stirring at 100 rpm). The crystallization temperature of the sugar liquids with different mass concentrations was observed and recorded. A crystallization curve was plotted for arabinose: y=0.4163x+40.413 (correlation coefficient R 2=1) (see FIG. 4 and Table 15-1).

[2] = In vitro osmotic pressure test (Vapro Pressure Osmometer); format: physicochemical; details: versus sorbitol solution at the same mass concentration 30%
Text: Instrument: Vapro Pressure Osmometer
Materials: L-Arabinose (Prepared According to the Method of Example 1); Sorbitol (Commercially Available Chinese Medicinal Agent)
Procedure: The 4 numbered solutions were each prepared according to the material proportions shown in Table 2 and stirred until they were all clear and transparent.

SMILES: O[C@@H]1[C@@H](O)[C@@H](O)OC[C@@H]1O [L-arabinose, β-L-(+)-arabinose]
- Supersaturation coefficient ([1]; 40 °C): 1.233
- Crystallization mass concentration ([1]; 40 °C): 57.07%
- Supersaturation coefficient ([1]; 49 °C): 1.154
- Crystallization mass concentration ([1]; 49 °C): 60.81%
- Supersaturation coefficient ([1]; 53 °C): 1.134
- Crystallization mass concentration ([1]; 53 °C): 62.48%
- Supersaturation coefficient ([1]; 58 °C): 1.135
- Crystallization mass concentration ([1]; 58 °C): 64.56%
- Supersaturation coefficient ([1]; 65 °C): 1.097
- Crystallization mass concentration ([1]; 65 °C): 67.47%
- Saturation mass concentration ([1]; 40 °C): 46.3%
- Saturation mass concentration ([1]; 49 °C): 52.7%
- Saturation mass concentration ([1]; 53 °C): 55.1%
- Saturation mass concentration ([1]; 58 °C): 56.9%
- Saturation mass concentration ([1]; 65 °C): 61.5%
- Percent increase in osmotic pressure [2]: 22.8%
